Data published in PubChem BioAssay AID2060903 (Molecular Pharmacology Branch, DTP, NCI, 2025).
pIC50: −log10 of the molar value.

Test system: 377384-186-R-J1-PDC complex spheroid viability
Experiment: Anticancer human tumor 377384-186-R-J1-PDC patient-derived pancreatic carcinoma cell line growth inhibition [RAS]
Settings: for pIC50: curve of first compound; for viability, T/C: stronger effect = lower value
Description: RAS pathway inhibitors in Combinations in Complex Spheroids
A high-throughput screen of multi-cell type tumor spheroids was designed to identify active combinations of RAS pathway inhibitors and targeted small molecules. Complex spheroids include a stromal component modeled by human endothelial cells (HUVEC) and fibroblasts modeled by human mesenchymal stem cells (MSCs). The concentration ranges selected for each drug and investigational agent were based upon clinically achievable concentrations if the clinical Cmax of the agent was known.
Compounds. The drugs and investigational agents: abemaciclib (NSC768073), cobimetinib (NSC768068), divarasib (GDC6063, NSC841802), docetaxel (NSC628503), GDC-1971 (RLY-1971, NSC841576), gemcitabine (NSC613327), inavolisib (NSC800729), ipatasertib (NSC767898), KB-0742 (NSC834161), MRTX-1133 (NSC836407), osimertinib (NSC779217), RMC-4630 (NSC839698), RMC-6236 (NSC851965), RMC-6291 (NSC852671), Ro-3306 (NSC812927), sapanisertib (NSC764658), SN-38 (NSC673596), staurosporine (NSC755774), SY5609 (NSC837396), and tovorafenib (DAY101, NSC766906), were obtained from the National Cancer Institute (NCI) Developmental Therapeutics Program Chemical Repository. The FDA-approved anticancer drug set is available from the NCI Developmental Therapeutics Program. […] The stock solutions were prepared in dimethyl sulfoxide (DMSO, Sigma-Aldrich, St. Louis, MO, cat. D2650) at 800-fold the tested concentration and stored at -70 degrees C prior to their use. All drugs and investigational agents were tested over a range starting from a high concentration at or near the clinical Cmax and decreasing in half-log increments. If the clinical Cmax for an agent had not been determined, the highest concentration tested was 10 microM.
Cell Culture. All cells were maintained in an incubator at 37 degrees C and 5% CO2 with 95% humidity. The PDC lines were cultured according to standard operating procedures established by the NCI PDMR. All PDCs were thawed and cultured in Matrigel-coated flasks prepared with a working solution of 1X Ham's F-12 nutrient mix, without supplementation (Invitrogen, Waltham, MA, cat. 11765054), 100 U/mL penicillin-streptomycin (Invitrogen, cat. 15140122), and 2.5% Matrigel (Corning Inc., Corning, NY, cat. 354248) for the first three passages. The 362531-283-R-J2-PDC and 782815-120-R-J1-PDC lines were cultured in 6C/Colon 1B media, which includes advanced DMEM/F-12 (Thermo Fisher Scientific, cat. 12634028), 10 mM HEPES (Thermo Fisher Scientific, cat. 15630080), 1X GlutaMAX supplement (Thermo Fisher Scientific, cat. 35050061), 0.1 mg/mL primocin (InvivoGen, San Diego, CA, cat. ant-pm-2), 10% defined fetal bovine serum, heat inactivated (HyClone Laboratories Inc., Logan, UT, cat. SH30070.03HI), 50% L-WRN conditioned media (ATCC, cat. CRL-3276), 1.25 mM N-Acetyl-L-cysteine (Sigma-Aldrich, cat. A9165), 10 mM nicotinamide (Sigma-Aldrich, cat. N0636), 1X B-27 supplement (Thermo Fisher Scientific, cat. 17504044), 1X N-2 supplement (Thermo Fisher Scientific, cat. 17502048), 50 ng/mL human EGF (Thermo Fisher Scientific, cat. PHG0311), and 10 microM Y-27632 dihydrochloride (Tocris Bioscience, cat. 1254). The K12877-001-R-J1-PDC line was cultured in 6I media, which includes all 6C/Colon 1B media plus 10 ng/mL human FGF-10 (PeproTech, cat. 100-26), 1 ng/mL human FGF-2 (PeproTech, cat. 100-18B), 1 µM prostaglandin E2 (Tocris Bioscience, cat. 2296), […] hydrocortisone (Sigma-Aldrich, cat. H4001), and […] bovine insulin (Sigma-Aldrich, cat. I6634). The K86415-001-R-J1-PDC line was cultured in 6D media, which includes all 6C/Colon 1B media components minus the L-WRN conditioned media. The 485176-168-R4-J1-PDC was cultured in PANC media, which includes all 6C/Colon 1B media plus 100 ng/mL human FGF-10 (PeproTech, cat. 100-26), 500 nM SB-431542 (Selleckchem, cat. S1067), and 10 nM gastrin (Tocris Bioscience, cat. 3006). […]
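Note: spheroids exposed to compounds for seven days before readout.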

**Q.** What does the source list for `C[C@@H](NC(=O)c1ncnc(N)c1Cl)c1ncc(C(=O)Nc2cc(C(F)(F)F)c(Cl)cn2)s1` + C#Cc1c(F)ccc2cc(O)cc(-c3ncc4c(N5CC6CCC(C5)N6)nc(OCC56CCCN5CC(F)C6)nc4c3F)c12?
**A.** pIC50 (second compound 0.0316 µM): > 7.50; pIC50 (second compound 0.1 µM): > 7.50; pIC50 (second compound 0.316 µM): > 7.50; pIC50 (second compound 1 µM): > 7.50; pIC50 (second compound 3.16 µM): > 7.50; pIC50 (second compound 10 µM): > 7.50; viability, T/C (second compound 0.0316 µM, first compound 0.0316 µM): 30.5%; viability, T/C (second compound 0.0316 µM, first compound 0.1 µM): 27.9%; viability, T/C (second compound 0.0316 µM, first compound 0.316 µM): 30%; viability, T/C (second compound 0.0316 µM, first compound 1 µM): 31.1%; viability, T/C (second compound 0.0316 µM, first compound 3.16 µM): 30.3%; viability, T/C (second compound 0.0316 µM, first compound 10 µM): 27.2%; viability, T/C (second compound 0.1 µM, first compound 0.0316 µM): 14.6%; viability, T/C (second compound 0.1 µM, first compound 0.1 µM): 16.2%; viability, T/C (second compound 0.1 µM, first compound 0.316 µM): 14.1%; viability, T/C (second compound 0.1 µM, first compound 1 µM): 19.3%; viability, T/C (second compound 0.1 µM, first compound 3.16 µM): 16.2%; viability, T/C (second compound 0.1 µM, first compound 10 µM): 14.4%; viability, T/C (second compound 0.316 µM, first compound 0.0316 µM): 7.93%; viability, T/C (second compound 0.316 µM, first compound 0.1 µM): 8.44%; viability, T/C (second compound 0.316 µM, first compound 0.316 µM): 10.6%; viability, T/C (second compound 0.316 µM, first compound 1 µM): 9.52%; viability, T/C (second compound 0.316 µM, first compound 3.16 µM): 11.1%; viability, T/C (second compound 0.316 µM, first compound 10 µM): 10.5%; viability, T/C (second compound 1 µM, first compound 0.0316 µM): 4.26%; viability, T/C (second compound 1 µM, first compound 0.1 µM): 5.19%; viability, T/C (second compound 1 µM, first compound 0.316 µM): 5.9%; viability, T/C (second compound 1 µM, first compound 1 µM): 8.08%; viability, T/C (second compound 1 µM, first compound 3.16 µM): 8.4%; viability, T/C (second compound 1 µM, first compound 10 µM): 6.52%; viability, T/C (second compound 3.16 µM, first compound 0.0316 µM): 3.23%; viability, T/C (second compound 3.16 µM, first compound 0.1 µM): 2.84%; viability, T/C (second compound 3.16 µM, first compound 0.316 µM): 2.97%; viability, T/C (second compound 3.16 µM, first compound 1 µM): 3.77%; viability, T/C (second compound 3.16 µM, first compound 3.16 µM): 4.25%; viability, T/C (second compound 3.16 µM, first compound 10 µM): 4.87%; viability, T/C (second compound 10 µM, first compound 0.0316 µM): 2.04%; viability, T/C (second compound 10 µM, first compound 0.1 µM): 1.21%; viability, T/C (second compound 10 µM, first compound 0.316 µM): 1.76%; viability, T/C (second compound 10 µM, first compound 1 µM): 2.5%; viability, T/C (second compound 10 µM, first compound 3.16 µM): 3.8%; viability, T/C (second compound 10 µM, first compound 10 µM): 1.16%
